Assay results from paper PMC5762315, “Inhibition of polo-like kinase 4 (PLK4): a new therapeutic option for rhabdoid tumors and pediatric medulloblastoma” (Oncotarget, 2017).
Values joined by “and” are separate entries in the source; they are usually repeats but may differ in a detail not shown here. Identical values can stand only once.

How the values were obtained:
various kinases [1] = biological target: various kinases (Homo sapiens, UniProt O00750); experiment: Adapta Universal Kinase Assay, panel of 486 biochemical kinase assays; set-up: % Inhibition Average: concentration or dose not given beside the values; conditions: PIK3C2B (PI3K-C2 beta)
various kinases [2] = biological target: T1, various kinases (Homo sapiens, UniProt Q9NRA0); experiment: as above; set-up: % Inhibition Average: concentration or dose not given beside the values; conditions: kinase SPHK2; Adapta
T1 sequence (Q9NRA0 1-654): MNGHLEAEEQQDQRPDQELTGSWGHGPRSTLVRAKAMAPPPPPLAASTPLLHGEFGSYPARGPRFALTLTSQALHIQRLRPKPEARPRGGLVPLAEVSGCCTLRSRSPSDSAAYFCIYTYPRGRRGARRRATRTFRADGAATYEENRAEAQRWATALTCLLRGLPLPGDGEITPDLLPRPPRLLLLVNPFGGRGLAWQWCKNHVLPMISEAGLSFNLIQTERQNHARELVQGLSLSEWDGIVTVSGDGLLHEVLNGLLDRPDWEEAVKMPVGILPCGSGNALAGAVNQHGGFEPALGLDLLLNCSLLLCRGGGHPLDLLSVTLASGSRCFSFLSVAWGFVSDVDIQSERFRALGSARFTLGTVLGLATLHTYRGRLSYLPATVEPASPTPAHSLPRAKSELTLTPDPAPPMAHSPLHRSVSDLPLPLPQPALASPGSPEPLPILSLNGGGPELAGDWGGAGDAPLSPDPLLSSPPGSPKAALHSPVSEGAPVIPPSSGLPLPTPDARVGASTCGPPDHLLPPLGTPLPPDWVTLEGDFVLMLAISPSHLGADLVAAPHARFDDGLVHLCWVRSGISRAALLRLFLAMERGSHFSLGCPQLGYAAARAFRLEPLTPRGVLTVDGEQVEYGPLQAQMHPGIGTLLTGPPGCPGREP

various kinases [3] = biological target: various kinases (Homo sapiens, UniProt P48426); experiment: as above; set-up: % Inhibition Average: concentration or dose not given beside the values; conditions: PIP4K2A
various kinases [4] = biological target: various kinases (Homo sapiens, UniProt O14986); experiment: as above; set-up: % Inhibition Average: concentration or dose not given beside the values; conditions: kinase PIP5K1B; Adapta
Chain of various kinases (Homo sapiens, UniProt O14986) (O14986 whole entry): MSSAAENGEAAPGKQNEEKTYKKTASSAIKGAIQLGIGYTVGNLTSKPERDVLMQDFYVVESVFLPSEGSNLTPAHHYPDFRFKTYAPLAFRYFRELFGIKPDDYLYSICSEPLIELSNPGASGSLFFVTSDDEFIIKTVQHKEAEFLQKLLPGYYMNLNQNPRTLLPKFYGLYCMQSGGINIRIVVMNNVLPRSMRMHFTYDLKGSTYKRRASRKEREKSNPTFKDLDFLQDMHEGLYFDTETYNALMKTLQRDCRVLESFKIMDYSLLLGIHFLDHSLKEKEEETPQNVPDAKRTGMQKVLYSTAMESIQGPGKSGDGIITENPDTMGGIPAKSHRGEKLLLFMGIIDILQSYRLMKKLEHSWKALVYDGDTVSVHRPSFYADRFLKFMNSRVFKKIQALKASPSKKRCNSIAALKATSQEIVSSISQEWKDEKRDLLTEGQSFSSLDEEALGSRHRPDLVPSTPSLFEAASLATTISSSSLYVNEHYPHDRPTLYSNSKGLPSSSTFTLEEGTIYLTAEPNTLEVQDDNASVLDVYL

various kinases [5] = biological target: various kinases (Homo sapiens, UniProt Q5S007, R1441C); experiment: as above; set-up: % Inhibition Average: concentration or dose not given beside the values; conditions: LRRK2 R1441C
various kinases [6] = biological target: various kinases (Homo sapiens, UniProt P11802); experiment: as above; set-up: % Inhibition Average: concentration or dose not given beside the values
Chain of various kinases (Homo sapiens, UniProt P11802) (P11802 whole entry): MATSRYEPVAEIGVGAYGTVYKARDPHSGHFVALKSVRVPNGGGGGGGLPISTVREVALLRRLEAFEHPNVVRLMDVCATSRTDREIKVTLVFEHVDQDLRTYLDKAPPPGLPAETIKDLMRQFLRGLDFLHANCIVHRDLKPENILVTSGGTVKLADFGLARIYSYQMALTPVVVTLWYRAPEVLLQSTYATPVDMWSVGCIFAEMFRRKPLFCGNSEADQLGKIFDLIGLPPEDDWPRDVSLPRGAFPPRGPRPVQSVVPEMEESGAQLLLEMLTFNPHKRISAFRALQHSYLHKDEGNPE

various kinases [7] = biological target: various kinases (Homo sapiens, UniProt O00329); experiment: as above; set-up: % Inhibition Average: concentration or dose not given beside the values; conditions: PIK3CD/PIK3R1 (p110 delta/p85 alpha)
various kinases [8] = biological target: various kinases (Homo sapiens, UniProt P42336, E545K); experiment: as above; set-up: % Inhibition Average: concentration or dose not given beside the values; conditions: PIK3CA E545K/PIK3R1 (p110 alpha E545K/p85 alpha)
various kinases [9] = biological target: various kinases (Homo sapiens, UniProt Q99755); experiment: as above; set-up: % Inhibition Average: concentration or dose not given beside the values; conditions: PIP5K1A
various kinases [10] = biological target: various kinases (Homo sapiens, UniProt O00443); experiment: as above; set-up: % Inhibition Average: concentration or dose not given beside the values; conditions: PIK3C2A (PI3K-C2 alpha)
various kinases [11] = biological target: various kinases (Homo sapiens, UniProt P48736); experiment: as above; set-up: % Inhibition Average: concentration or dose not given beside the values; conditions: PIK3CG (p110 gamma)
various kinases [12] = biological target: various kinases (Homo sapiens, UniProt O15111); experiment: as above; set-up: % Inhibition Average: concentration or dose not given beside the values; conditions: CHUK (IKK alpha)
various kinases [13] = biological target: various kinases (Homo sapiens, UniProt P42356); experiment: as above; set-up: % Inhibition Average: concentration or dose not given beside the values; conditions: PI4KA (PI4K alpha)
various kinases [14] = biological target: various kinases (Homo sapiens, UniProt Q5S007); experiment: as above; set-up: % Inhibition Average: concentration or dose not given beside the values
Chain of various kinases (Homo sapiens, UniProt Q5S007) (Q5S007 whole entry): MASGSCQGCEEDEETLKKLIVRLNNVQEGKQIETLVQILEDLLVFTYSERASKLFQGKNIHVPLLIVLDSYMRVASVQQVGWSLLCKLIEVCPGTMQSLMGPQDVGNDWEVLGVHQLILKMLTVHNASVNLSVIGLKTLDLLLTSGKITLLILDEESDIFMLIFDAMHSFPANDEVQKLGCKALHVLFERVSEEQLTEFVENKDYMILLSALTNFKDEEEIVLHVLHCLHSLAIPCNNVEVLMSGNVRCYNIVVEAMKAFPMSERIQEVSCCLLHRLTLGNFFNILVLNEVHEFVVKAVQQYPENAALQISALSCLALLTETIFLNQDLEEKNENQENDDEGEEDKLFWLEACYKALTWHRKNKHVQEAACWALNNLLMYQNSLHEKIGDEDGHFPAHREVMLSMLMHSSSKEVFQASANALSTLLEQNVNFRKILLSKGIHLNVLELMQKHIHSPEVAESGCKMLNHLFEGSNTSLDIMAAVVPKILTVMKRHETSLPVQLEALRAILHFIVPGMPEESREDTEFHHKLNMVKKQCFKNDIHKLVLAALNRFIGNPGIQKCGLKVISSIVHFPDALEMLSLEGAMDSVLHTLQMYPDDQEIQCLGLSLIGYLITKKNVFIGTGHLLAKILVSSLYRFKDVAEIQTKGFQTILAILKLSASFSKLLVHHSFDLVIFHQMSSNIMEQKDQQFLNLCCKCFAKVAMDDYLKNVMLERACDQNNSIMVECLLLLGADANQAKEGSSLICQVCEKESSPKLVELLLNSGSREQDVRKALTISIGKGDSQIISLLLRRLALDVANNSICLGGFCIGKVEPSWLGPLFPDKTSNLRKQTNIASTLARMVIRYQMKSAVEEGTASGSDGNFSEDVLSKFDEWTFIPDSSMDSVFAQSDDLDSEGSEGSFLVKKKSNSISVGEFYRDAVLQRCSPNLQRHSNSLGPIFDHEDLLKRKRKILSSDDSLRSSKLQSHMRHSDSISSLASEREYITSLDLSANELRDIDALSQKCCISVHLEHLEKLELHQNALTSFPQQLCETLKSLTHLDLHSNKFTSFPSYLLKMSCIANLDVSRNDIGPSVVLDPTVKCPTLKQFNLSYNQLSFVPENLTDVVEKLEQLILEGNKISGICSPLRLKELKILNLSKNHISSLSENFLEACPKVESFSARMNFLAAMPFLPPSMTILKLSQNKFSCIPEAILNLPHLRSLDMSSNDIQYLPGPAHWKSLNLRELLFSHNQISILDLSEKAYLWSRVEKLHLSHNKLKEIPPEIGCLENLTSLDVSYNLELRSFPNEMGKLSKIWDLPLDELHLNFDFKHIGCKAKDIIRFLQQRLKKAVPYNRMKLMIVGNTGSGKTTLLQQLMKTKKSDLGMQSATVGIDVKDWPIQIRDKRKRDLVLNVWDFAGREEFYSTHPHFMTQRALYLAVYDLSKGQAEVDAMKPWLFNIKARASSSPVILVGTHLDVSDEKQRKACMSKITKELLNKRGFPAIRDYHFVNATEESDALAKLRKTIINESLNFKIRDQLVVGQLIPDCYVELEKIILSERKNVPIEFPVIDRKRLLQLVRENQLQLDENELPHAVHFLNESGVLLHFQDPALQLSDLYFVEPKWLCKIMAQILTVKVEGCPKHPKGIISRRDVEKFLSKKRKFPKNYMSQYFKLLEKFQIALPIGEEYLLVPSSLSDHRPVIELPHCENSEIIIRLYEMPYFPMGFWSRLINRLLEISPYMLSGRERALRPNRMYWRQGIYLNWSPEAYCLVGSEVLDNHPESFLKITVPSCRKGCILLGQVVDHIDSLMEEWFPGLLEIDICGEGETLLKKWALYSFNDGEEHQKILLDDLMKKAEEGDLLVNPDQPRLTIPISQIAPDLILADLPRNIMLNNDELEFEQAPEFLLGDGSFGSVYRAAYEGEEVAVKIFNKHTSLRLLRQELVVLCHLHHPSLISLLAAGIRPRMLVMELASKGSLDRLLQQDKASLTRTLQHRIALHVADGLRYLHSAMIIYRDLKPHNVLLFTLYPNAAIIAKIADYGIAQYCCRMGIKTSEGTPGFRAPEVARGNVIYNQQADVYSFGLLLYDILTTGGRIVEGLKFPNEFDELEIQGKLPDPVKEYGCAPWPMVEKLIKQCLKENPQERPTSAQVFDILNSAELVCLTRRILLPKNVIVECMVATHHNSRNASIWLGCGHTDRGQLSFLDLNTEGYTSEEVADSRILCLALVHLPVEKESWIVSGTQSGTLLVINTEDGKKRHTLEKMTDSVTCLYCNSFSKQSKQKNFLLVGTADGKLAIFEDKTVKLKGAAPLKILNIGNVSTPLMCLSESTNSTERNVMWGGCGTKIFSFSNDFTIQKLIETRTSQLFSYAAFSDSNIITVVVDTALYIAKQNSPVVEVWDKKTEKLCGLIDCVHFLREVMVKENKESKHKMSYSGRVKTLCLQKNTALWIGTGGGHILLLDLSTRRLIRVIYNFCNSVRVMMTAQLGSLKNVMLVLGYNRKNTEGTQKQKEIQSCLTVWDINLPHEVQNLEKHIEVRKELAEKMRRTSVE

various kinases [15] = biological target: various kinases (Homo sapiens, UniProt O75747); experiment: as above; set-up: % Inhibition Average: concentration or dose not given beside the values; conditions: PIK3C2G (PI3K-C2 gamma)
various kinases [16] = biological target: various kinases (Homo sapiens, UniProt O60331); experiment: as above; set-up: % Inhibition Average: concentration or dose not given beside the values; conditions: kinase PIP5K1C; Adapta
Chain of various kinases (Homo sapiens, UniProt O60331) (O60331 whole entry): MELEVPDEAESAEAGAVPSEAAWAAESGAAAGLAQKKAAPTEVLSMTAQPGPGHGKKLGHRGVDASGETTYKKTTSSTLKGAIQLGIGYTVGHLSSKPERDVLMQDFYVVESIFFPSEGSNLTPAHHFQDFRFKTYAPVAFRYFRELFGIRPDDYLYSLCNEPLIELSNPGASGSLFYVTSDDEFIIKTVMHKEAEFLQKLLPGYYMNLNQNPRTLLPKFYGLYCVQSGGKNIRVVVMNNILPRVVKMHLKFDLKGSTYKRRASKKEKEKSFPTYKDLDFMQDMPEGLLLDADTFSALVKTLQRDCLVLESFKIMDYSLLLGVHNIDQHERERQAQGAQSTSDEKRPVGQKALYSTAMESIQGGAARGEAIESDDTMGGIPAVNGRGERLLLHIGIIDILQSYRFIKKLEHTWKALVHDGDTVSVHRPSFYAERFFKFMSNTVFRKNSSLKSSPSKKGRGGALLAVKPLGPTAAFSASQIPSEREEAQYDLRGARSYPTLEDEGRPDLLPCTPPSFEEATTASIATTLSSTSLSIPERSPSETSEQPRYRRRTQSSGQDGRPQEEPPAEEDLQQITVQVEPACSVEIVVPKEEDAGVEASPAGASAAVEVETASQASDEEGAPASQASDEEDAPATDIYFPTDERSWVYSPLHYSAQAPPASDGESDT

various kinases [17] = biological target: various kinases (Homo sapiens, UniProt Q9BTU6); experiment: as above; set-up: % Inhibition Average: concentration or dose not given beside the values; conditions: PI4K2A (PI4K2 alpha)
various kinases [18] = biological target: various kinases (Homo sapiens, UniProt P42336, E542K); experiment: as above; set-up: % Inhibition Average: concentration or dose not given beside the values; conditions: PIK3CA E542K/PIK3R1 (p110 alpha E542K/p85 alpha)
various kinases [19] = biological target: various kinases (Homo sapiens, UniProt Q5S007, I2020T); experiment: as above; set-up: % Inhibition Average: concentration or dose not given beside the values; conditions: LRRK2 I2020T
Chain of various kinases (Homo sapiens, UniProt Q5S007, I2020T) (Q5S007 whole entry I2020T): as the sequence (Q5S007 whole entry) above, with I2020T counted along it

various kinases [20] = biological target: various kinases (Homo sapiens, UniProt O60285); experiment: as above; set-up: % Inhibition Average: concentration or dose not given beside the values; conditions: NUAK1 (ARK5)
Chain of various kinases (Homo sapiens, UniProt O60285) (O60285 whole entry): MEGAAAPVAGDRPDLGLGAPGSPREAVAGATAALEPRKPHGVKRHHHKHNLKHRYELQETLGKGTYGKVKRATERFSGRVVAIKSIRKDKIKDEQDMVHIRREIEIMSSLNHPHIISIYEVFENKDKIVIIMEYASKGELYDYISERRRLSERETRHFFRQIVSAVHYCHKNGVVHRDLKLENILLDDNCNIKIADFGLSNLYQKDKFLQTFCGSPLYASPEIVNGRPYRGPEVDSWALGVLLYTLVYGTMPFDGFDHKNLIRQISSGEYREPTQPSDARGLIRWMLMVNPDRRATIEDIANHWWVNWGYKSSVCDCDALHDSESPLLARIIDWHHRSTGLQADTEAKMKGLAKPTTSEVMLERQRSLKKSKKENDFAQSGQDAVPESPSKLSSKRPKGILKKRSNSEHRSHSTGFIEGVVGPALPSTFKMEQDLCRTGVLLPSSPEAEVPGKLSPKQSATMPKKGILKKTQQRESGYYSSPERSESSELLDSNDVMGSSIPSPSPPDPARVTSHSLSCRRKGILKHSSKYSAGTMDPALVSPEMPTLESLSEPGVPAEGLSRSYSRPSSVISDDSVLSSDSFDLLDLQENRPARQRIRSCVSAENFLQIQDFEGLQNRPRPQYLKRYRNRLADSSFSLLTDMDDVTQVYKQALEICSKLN

various kinases [21] = biological target: various kinases (Homo sapiens, UniProt Q8TCG2); experiment: as above; set-up: % Inhibition Average: concentration or dose not given beside the values; conditions: PI4K2B (PI4K2 beta)
various kinases [22] = biological target: various kinases (Homo sapiens, UniProt P50613); experiment: as above; set-up: % Inhibition Average: concentration or dose not given beside the values; conditions: CDK7/cyclin H/MNAT1
Chain of various kinases (Homo sapiens, UniProt P50613) (P50613 whole entry): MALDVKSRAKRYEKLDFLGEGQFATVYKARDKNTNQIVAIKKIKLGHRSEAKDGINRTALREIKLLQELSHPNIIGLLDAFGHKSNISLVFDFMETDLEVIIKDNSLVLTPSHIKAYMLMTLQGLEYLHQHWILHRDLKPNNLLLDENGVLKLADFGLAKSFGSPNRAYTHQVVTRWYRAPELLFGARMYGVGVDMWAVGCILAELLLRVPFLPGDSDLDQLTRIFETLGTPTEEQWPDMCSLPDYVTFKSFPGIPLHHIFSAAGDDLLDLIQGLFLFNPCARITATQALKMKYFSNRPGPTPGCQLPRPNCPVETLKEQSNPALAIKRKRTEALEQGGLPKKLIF

hERG K+ channel = hERG K+ channel (Homo sapiens, UniProt Q12809); experiment: biochemical

Structure (SMILES): COc1ccc2c(c1)[C@]1(C[C@H]1c1ccc3c(/C=C/c4ccc(CN5C[C@@H](C)O[C@@H](C)C5)cc4)n[nH]c3c1)C(=O)N2 [CFI-400945]
- % Inhibition (various kinases [1]): 2% and -1%
- % Inhibition Average (various kinases [2]): -20%
- % Inhibition Duplicate #1 (various kinases [2]): -15%
- % Inhibition Duplicate #2 (various kinases [2]): -24%
- % Inhibition (various kinases [3]): 5% and 10%
- % Inhibition Average (various kinases [4]): -1%
- % Inhibition Duplicate #1 (various kinases [4]): 2%
- % Inhibition Duplicate #2 (various kinases [4]): -3%
- % Inhibition (various kinases [5]): 35% and 42%
- % Inhibition (various kinases [6]; CDK4/cyclin D1): 10% and 9%
- % Inhibition (various kinases [6]; CDK4/cyclin D3): 5% and 8%
- % Inhibition (various kinases [7]): -2% and -8%
- % Inhibition (various kinases [8]): -5% and -9%
- % Inhibition (various kinases [9]): -3% and 4%
- % Inhibition (various kinases [10]): 0% and 1%
- % Inhibition (various kinases [11]): -2% and -5%
- % Inhibition (various kinases [12]): -11%
- % Inhibition (various kinases [13]): 12% and 7%
- % Inhibition (various kinases [14]; LRRK2): 34% and 26%
- % Inhibition (various kinases [14]; LRRK2 FL): 43% and 42%
- % Inhibition (various kinases [15]): -1% and -6%
- % Inhibition Average (various kinases [16]): 8%
- % Inhibition Duplicate #1 (various kinases [16]): 8%
- % Inhibition Duplicate #2 (various kinases [16]): 8%
- % Inhibition (various kinases [17]): -1% and 2%
- % Inhibition (various kinases [18]): 6% and 9%
- % Inhibition (various kinases [19]): 44% and 46%
- % Inhibition (various kinases [20]): 66% and 65%
- IC50 (various kinases [20]): 272 nM
- % Inhibition (various kinases [21]): -13% and -11%
- % Inhibition (various kinases [22]): -11% and -6%
- IC50 (hERG K+ channel): > 500 nM
